Measurements from publication PMC6689002, “Anthocyanins, delphinidin-3-O-glucoside and cyanidin-3-O-glucoside, inhibit immune checkpoints in human colorectal cancer cells in vitro and in silico” (Scientific Reports, 2019).

Experiments:
[1] = molecular target: T1, programmed death-ligand 1 (PD-L1) (Homo sapiens, UniProt Q9NZQ7); test: intrinsic fluorescence quenching (Stern-Volmer, static quenching); format: binding
T1 construct: gene CD274; recombinant human PD-L1 protein

[2] = molecular target: T2, programmed cell death protein 1 (PD-1) (Homo sapiens, UniProt Q15116); test: as above; format: binding
T2 construct: gene PDCD1; human PD-1 protein
T2 sequence (Q15116 25-288): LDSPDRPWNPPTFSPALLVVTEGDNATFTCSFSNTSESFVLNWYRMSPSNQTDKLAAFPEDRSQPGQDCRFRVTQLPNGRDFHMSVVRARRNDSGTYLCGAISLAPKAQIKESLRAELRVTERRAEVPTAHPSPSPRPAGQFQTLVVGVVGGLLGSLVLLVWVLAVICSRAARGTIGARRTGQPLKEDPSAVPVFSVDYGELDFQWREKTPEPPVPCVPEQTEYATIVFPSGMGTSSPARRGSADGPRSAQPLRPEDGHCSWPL

T1 sequence (Q9NZQ7 19-290): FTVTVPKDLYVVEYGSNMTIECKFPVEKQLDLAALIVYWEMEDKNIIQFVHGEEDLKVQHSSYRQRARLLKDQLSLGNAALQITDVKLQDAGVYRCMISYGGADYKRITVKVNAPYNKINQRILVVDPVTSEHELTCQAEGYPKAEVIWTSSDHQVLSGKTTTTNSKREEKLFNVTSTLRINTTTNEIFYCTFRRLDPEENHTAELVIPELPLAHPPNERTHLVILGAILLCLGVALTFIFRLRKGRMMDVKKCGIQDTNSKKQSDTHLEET

OCC1OC(Oc2cc3c(O)cc(O)cc3[o+]c2-c2ccc(O)c(O)c2)C(O)C(O)C1O (stereo not shown) [C3G, cyanidin-3-O-glucoside]
intrinsic fluorescence quenching (Stern-Volmer, static quenching) [1]: C3G and D3G showed static quenching with both PD-1 and PD-L1 | intrinsic fluorescence quenching (Stern-Volmer, static quenching) [2]: C3G and D3G showed static quenching with both PD-1 and PD-L1

OCC1OC(Oc2cc3c(O)cc(O)cc3[o+]c2-c2cc(O)c(O)c(O)c2)C(O)C(O)C1O (stereo not shown) [D3G, delphinidin-3-O-glucoside]
intrinsic fluorescence quenching (Stern-Volmer, static quenching) [1]: C3G and D3G showed static quenching with both PD-1 and PD-L1 | intrinsic fluorescence quenching (Stern-Volmer, static quenching) [2]: C3G and D3G showed static quenching with both PD-1 and PD-L1
